Results taken from ChEMBL document CHEMBL1151074, “RATIONAL DESIGN, SYNTHESIS, AND SERINE PROTEASE INHIBITORY ACTIVITY OF NOVEL P1-ARGININOYL HETEROCYCLES” (Bioorg Med Chem Lett, 1997).

Columns and labels:
[1] = target: Plasminogen (Rattus norvegicus, UniProt Q01177); assay: Inhibitory concentration against plasmin.
[2] = target: Serine protease 1 (Homo sapiens, UniProt P07477); assay: Inhibitory concentration against trypsin.
[3] = Inhibitory concentration against factor Xa(FXa).
[4] = target: Prothrombin (Homo sapiens, UniProt P00734); assay: Inhibitory concentration against thrombin(FIIa).

Serine protease 1, sequence (P07477 whole entry): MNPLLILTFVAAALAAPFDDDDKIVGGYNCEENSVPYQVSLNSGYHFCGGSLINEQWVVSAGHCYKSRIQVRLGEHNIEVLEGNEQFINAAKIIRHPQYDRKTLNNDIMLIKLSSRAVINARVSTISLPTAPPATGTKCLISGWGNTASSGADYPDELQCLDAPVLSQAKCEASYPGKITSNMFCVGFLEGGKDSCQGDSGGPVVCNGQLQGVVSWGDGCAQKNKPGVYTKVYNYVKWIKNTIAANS
Plasminogen, sequence (Q01177 97-581 limits assumed): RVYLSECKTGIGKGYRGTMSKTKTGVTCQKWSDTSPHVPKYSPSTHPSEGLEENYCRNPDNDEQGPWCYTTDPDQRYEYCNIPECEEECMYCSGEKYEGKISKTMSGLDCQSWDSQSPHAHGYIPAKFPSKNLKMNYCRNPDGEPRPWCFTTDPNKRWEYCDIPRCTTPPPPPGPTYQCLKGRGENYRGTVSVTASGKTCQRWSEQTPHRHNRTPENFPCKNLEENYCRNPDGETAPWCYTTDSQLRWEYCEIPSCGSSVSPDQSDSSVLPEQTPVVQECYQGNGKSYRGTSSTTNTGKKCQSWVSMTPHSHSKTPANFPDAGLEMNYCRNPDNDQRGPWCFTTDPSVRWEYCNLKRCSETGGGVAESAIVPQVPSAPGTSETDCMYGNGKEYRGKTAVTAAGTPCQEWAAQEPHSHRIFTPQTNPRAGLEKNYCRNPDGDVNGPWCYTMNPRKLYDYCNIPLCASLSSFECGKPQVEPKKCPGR
Plasminogen, sequence (Q01177 582-812 limits assumed): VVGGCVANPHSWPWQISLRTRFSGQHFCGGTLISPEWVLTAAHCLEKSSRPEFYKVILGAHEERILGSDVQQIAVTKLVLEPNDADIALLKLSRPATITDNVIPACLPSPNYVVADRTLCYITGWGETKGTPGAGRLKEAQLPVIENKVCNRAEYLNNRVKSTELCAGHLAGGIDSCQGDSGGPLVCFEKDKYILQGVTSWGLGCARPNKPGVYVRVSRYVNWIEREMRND

IC50 [1] [nM] | IC50 [2] [nM] | IC50 [3] [nM] | IC50 [4] [nM] | SMILES
> 2500 | 1010 | > 2500 | 92.1 | CC(C)(C)CC(=O)N[C@H](Cc1ccccc1)C(=O)N1CCC[C@H]1C(=O)N[C@@H](CCCN=C(N)N)C(=O)c1nc2ccccc2[nH]1
14.2 | 6.4 | 29 | > 2500 | CC(=O)N[C@H](Cc1ccccc1)C(=O)N[C@@H](Cc1cccc2ccccc12)C(=O)N[C@@H](CCCN=C(N)N)C(=O)c1nc2ccccc2o1
1320 | 2.3 | 110 | 68 | CC(C)(C)CC(=O)N[C@H](Cc1ccccc1)C(=O)N1CCC[C@H]1C(=O)N[C@@H](CCCNC(=N)N)C(=O)c1nc2ccccc2o1
> 2500 | 156 | > 2500 | 284 | CC(=O)N[C@H](Cc1ccccc1)C(=O)N1CCC[C@H]1C(=O)N[C@H]1CCCN(C(=N)N)C1O (some centres undefined)
< 25 | 25 | – | > 2500 | CC(=O)N[C@H](Cc1ccccc1)C(=O)N[C@@H](Cc1cccc2ccccc12)C(=O)N[C@H]1CCCN(C(=N)N)C1O (some centres undefined)
